In patent publication US10987354B2, “Inhibitors of influenza virus replication and uses thereof” (SUNSHINE LAKE PHARMA CO., LTD., priority 2016, dated 2021):

How the values were obtained:
[1] = test system: virus H1N1 A/Weiss/43; assay: microbe, parasite or virus in culture; type: cell-based; details: Influenza A virus, H1N1, 120 h; MDCK cells, CPE, 5 days, CCK-8; read-out: EC50, inhibitory activity against influenza virus (A/Weiss/43(H1N1))
[2] = in vivo; details: SD, rat
Method: The compounds disclosed herein were administered in form of a saline solution containing 5% DMSO, 5% Kolliphor HS 15 and 90% Saline. For intravenous administration (iv), the animals were administered with a dose of 1 mg/kg, and blood samples (0.3 mL) were collected at the time points of 0.083, 0.25, 0.5, 1.0, 2.0, 5.0, 7.0 and 24 h after drug administration, then each blood sample was processed to separate plasma by centrifugation at 3000 rpm or 4000 rpm for 10 minutes. For oral administration (po), the animals were administered with a dose of 5 mg/kg, and blood samples (0.3 mL) were collected at the time points of 0.25, 0.5, 1.0, 2.0, 5.0, 7.0 and 24 h after drug administration, then each blood sample was processed to separate plasma by centrifugation at 3000 rpm or 4000 rpm for 10 minutes. Plasma samples were collected and stored at −20° C. or −70° C. until LC/MS/MS analysis.

With `O=C(O)C1C2CCC(CC2)C1Nc1cc(-c2ccco2)nc(-c2c[nH]c3ncc(Cl)nc23)n1` (racemic) [Example 1, (+/−)-trans-3-((2-(2-chloro-5H-pyrrolo[2,3-b]pyrazin-7-yl)-6-(furan-2-yl)pyrimidin-4-yl)amino)bicyclo[2.2.2]octane-2-carboxylic Acid] the EC50 [1] was 3.89 nM.

`O=C(O)C1C2CCC(CC2)C1Nc1nc(-c2c[nH]c3ncc(Cl)nc23)nc(-c2ccco2)c1F` (racemic) [Example 3, (+/−)-trans-3-((2-(2-chloro-5H-pyrrolo[2,3-b]pyrazin-7-yl)-5-fluoro-6-(furan-2-yl)pyrimidin-4-yl)amino)bicyclo[2.2.2]octane-2-carboxylic Acid] showed an EC50 [1] of 0.672 nM.

`O=C(O)C1C2CCC(CC2)C1Nc1nc(-c2c[nH]c3ncc(Cl)nc23)nc(-c2ccccc2)c1F` (racemic) [Example 4, (+/−)-trans-3-((2-(2-chloro-5H-pyrrolo[2,3-b]pyrazin-7-yl)-5-fluoro-6-phenylpyrimidin-4-yl)amino)bicyclo[2.2.2]octane-2-carboxylic Acid] gave an EC50 [1] of 0.116 nM.

With `Cn1cc(-c2nc(-c3c[nH]c4ncc(Cl)nc34)nc(NC3C4CCC(CC4)C3C(=O)O)c2F)cn1` (racemic) [Example 5, (+/−)-trans-3-((2-(2-chloro-5H-pyrrolo[2,3-b]pyrazin-7-yl)-5-fluoro-6-(1-methyl-1H-pyrazol-4-yl)pyrimidin-4-yl)amino)bicyclo[2.2.2]octane-2-carboxylic Acid] the EC50 [1] was 3.52 nM.

In the case of `O=C(O)C1C2CCC(CC2)C1Nc1nc(-c2c[nH]c3ncc(Cl)nc23)nc(-c2cc3ccccc3o2)c1F` (racemic) [Example 6, (+/−)-trans-3-((6-(benzofuran-2-yl)-2-(2-chloro-5H-pyrrolo[2,3-b]pyrazin-7-yl)-5-fluoropyrimidin-4-yl)amino)bicyclo[2.2.2]octane-2-carboxylic Acid], the EC50 [1] is reported as 0.398 nM.

`O=C(O)C1C2CCC(CC2)C1Nc1cc(-c2ccccc2)nc(-c2c[nH]c3ncc(Cl)nc23)n1` (racemic) [Example 12, (+/−)-trans-3-((2-(2-chloro-5H-pyrrolo[2,3-b]pyrazin-7-yl)-6-phenylpyrimidin-4-yl)amino)bicyclo[2.2.2]octane-2-carboxylic Acid] showed an EC50 [1] of 2.54 nM.

Compound `O=C(O)[C@H]1C2CCC(CC2)[C@@H]1Nc1nc(-c2c[nH]c3ncc(Cl)nc23)ncc1F` [Compound A, reference compound] has an AUC(0-inf) ([2]; iv, 1 mg/kg) of 894 ng·h/mL, an AUC(0-t) ([2]; iv, 1 mg/kg) of 894 ng·h/mL and a clearance ([2]; iv, 1 mg/kg) of 312 mL/min/kg. For the same compound, the AUC(0-inf) ([2]; po, 5 mg/kg) was 2910 ng·h/mL, the AUC(0-t) ([2]; po, 5 mg/kg) was 2880 ng·h/mL and the EC50 [1] was 33.2 nM.

With `O=C(O)[C@H]1C2CCC(CC2)[C@@H]1Nc1nc(-c2c[nH]c3ncc(Cl)nc23)nc(-c2cc3ccccc3s2)c1F` [Example 7a, (2S,3S)-3-((6-(benzo[b]thiophen-2-yl)-2-(2-chloro-5H-pyrrolo[2,3-b]pyrazin-7-yl)-5-fluoropyrimidin-4-yl)amino)bicyclo[2.2.2]octane-2-carboxylic Acid] the AUC(0-inf) ([2]; iv, 1 mg/kg) was 3260 ng·h/mL, the AUC(0-t) ([2]; iv, 1 mg/kg) was 3220 ng·h/mL and the clearance ([2]; iv, 1 mg/kg) was 85.2 mL/min/kg. For the same compound, the AUC(0-inf) ([2]; po, 5 mg/kg) was 9950 ng·h/mL and the AUC(0-t) ([2]; po, 5 mg/kg) was 9840 ng·h/mL.

Work on `CC(C)(C)[C@@H](CC(=O)O)Nc1nc(-c2c[nH]c3ncc(Cl)nc23)nc(-c2ccco2)c1F` [Example 8, (R)-3-((2-(2-chloro-5H-pyrrolo[2,3-b]pyrazin-7-yl)-5-fluoro-6-(furan-2-yl)pyrimidin-4-yl)amino)-4,4-dimethylpentanoic Acid] yielded an AUC(0-inf) ([2]; iv, 1 mg/kg) of 1550 ng·h/mL, an AUC(0-t) ([2]; iv, 1 mg/kg) of 1540 ng·h/mL and a clearance ([2]; iv, 1 mg/kg) of 187 mL/min/kg. It also gave an AUC(0-inf) ([2]; po, 5 mg/kg) of 5440 ng·h/mL, an AUC(0-t) ([2]; po, 5 mg/kg) of 5420 ng·h/mL and an EC50 [1] of 0.394 nM.

In the case of `O=C(O)[C@H]1C2CCC(CC2)[C@@H]1Nc1nc(-c2c[nH]c3ncc(Cl)nc23)nc(-c2cccs2)c1F` [Example 13, (2S,3S)-3-((2-(2-chloro-5H-pyrrolo[2,3-b]pyrazin-7-yl)-5-fluoro-6-(thiophen-2-yl)pyrimidin-4-yl)amino)bicyclo[2.2.2]octane-2-carboxylic Acid], the AUC(0-inf) ([2]; iv, 1 mg/kg) is reported as 10100 ng·h/mL, the AUC(0-t) ([2]; iv, 1 mg/kg) is reported as 9900 ng·h/mL and the clearance ([2]; iv, 1 mg/kg) is reported as 27.8 mL/min/kg. The AUC(0-inf) ([2]; po, 5 mg/kg) was 29000 ng·h/mL, the AUC(0-t) ([2]; po, 5 mg/kg) was 27400 ng·h/mL and the EC50 [1] was 0.017 nM.

With `O=C(O)[C@H]1C2CCC(CC2)[C@@H]1Nc1cc(-c2cc3ccccc3s2)nc(-c2c[nH]c3ncc(Cl)nc23)n1` [Example 15, (2S,3S)-3-((6-(benzo[b]thiophen-2-yl)-2-(2-chloro-5H-pyrrolo[2,3-b]pyrazin-7-yl)pyrimidin-4-yl)amino)bicyclo[2.2.2]octane-2-carboxylic Acid] the EC50 [1] was 0.76 nM.

In the case of `O=C(O)[C@H]1C2CCC(CC2)[C@@H]1Nc1nc(-c2c[nH]c3ncc(Cl)nc23)nc(-c2ccc(C3CC3)s2)c1F` [Example 27, (2S,3S)-3-((2-(2-chloro-5H-pyrrolo[2,3-b]pyrazin-7-yl)-6-(5-cyclopropylthiophen-2-yl)-5-fluoropyrimidin-4-yl)amino)bicyclo[2.2.2]octane-2-carboxylic Acid], the AUC(0-inf) ([2]; iv, 1 mg/kg) is reported as 1960 ng·h/mL, the AUC(0-t) ([2]; iv, 1 mg/kg) is reported as 1960 ng·h/mL and the clearance ([2]; iv, 1 mg/kg) is reported as 144 mL/min/kg. It also gave an AUC(0-inf) ([2]; po, 5 mg/kg) of 7250 ng·h/mL, an AUC(0-t) ([2]; po, 5 mg/kg) of 7170 ng·h/mL and an EC50 [1] of 0.024 nM.

`O=C(O)[C@H]1C2CCC(CC2)[C@@H]1Nc1nc(-c2c[nH]c3ncc(Cl)nc23)nc(-c2ccc(Cl)s2)c1F` [Example 29, (2S,3S)-3-((2-(2-chloro-5H-pyrrolo[2,3-b]pyrazin-7-yl)-6-(5-chlorothiophen-2-yl)-5-fluoropyrimidin-4-yl)amino)bicyclo[2.2.2]octane-2-carboxylic Acid] showed an AUC(0-inf) ([2]; iv, 1 mg/kg) of 4980 ng·h/mL, an AUC(0-t) ([2]; iv, 1 mg/kg) of 4830 ng·h/mL and a clearance ([2]; iv, 1 mg/kg) of 56.3 mL/min/kg. It also gave an AUC(0-inf) ([2]; po, 5 mg/kg) of 23800 ng·h/mL, an AUC(0-t) ([2]; po, 5 mg/kg) of 23700 ng·h/mL and an EC50 [1] of 0.013 nM.

`Cc1ccc(-c2nc(-c3c[nH]c4ncc(Cl)nc34)nc(N[C@H]3C4CCC(CC4)[C@@H]3C(=O)O)c2F)s1` [Example 33, (2S,3S)-3-((2-(2-chloro-5H-pyrrolo[2,3-b]pyrazin-7-yl)-5-fluoro-6-(5-methylthiophen-2-yl)pyrimidin-4-yl)amino)bicyclo[2.2.2]octane-2-carboxylic Acid] gave an EC50 [1] of 0.01 nM.

Compound `O=C(O)[C@H]1C2CCC(CC2)[C@@H]1Nc1cc(N2CCN(c3ccccc3)CC2)nc(-c2c[nH]c3ncc(Cl)nc23)n1` [Example 39, (2S,3S)-3-((2-(2-chloro-5H-pyrrolo[2,3-b]pyrazin-7-yl)-6-(4-phenylpiperazin-1-yl)pyrimidin-4-yl)amino)bicyclo[2.2.2]octane-2-carboxylic Acid] has an EC50 [1] of 1.22 nM.

Compound `O=C(O)[C@H]1C2CCC(CC2)[C@@H]1Nc1nc(-c2c[nH]c3ncc(Cl)nc23)nc(-c2nccs2)c1F` [Example 49, (2S,3S)-3-((2-(2-chloro-5H-pyrrolo[2,3-b]pyrazin-7-yl)-5-fluoro-6-(thiazol-2-yl)pyrimidin-4-yl)amino)bicyclo[2.2.2]octane-2-carboxylic Acid] has an AUC(0-inf) ([2]; iv, 1 mg/kg) of 3950 ng·h/mL, an AUC(0-t) ([2]; iv, 1 mg/kg) of 3940 ng·h/mL and a clearance ([2]; iv, 1 mg/kg) of 71.5 mL/min/kg. The AUC(0-inf) ([2]; po, 5 mg/kg) was 3550 ng·h/mL, the AUC(0-t) ([2]; po, 5 mg/kg) was 3500 ng·h/mL and the EC50 [1] was 0.521 nM.

`O=C(O)[C@H]1C2CCC(CC2)[C@@H]1Nc1nc(-c2c[nH]c3nc(Cl)cnc23)nc(-c2cccs2)c1F` [Example 53, (2S,3S)-3-((2-(3-chloro-5H-pyrrolo[2,3-b]pyrazin-7-yl)-5-fluoro-6-(thiophen-2-yl)pyrimidin-4-yl)amino)bicyclo[2.2.2]octane-2-carboxylic Acid] showed an AUC(0-inf) ([2]; iv, 1 mg/kg) of 3740 ng·h/mL, an AUC(0-t) ([2]; iv, 1 mg/kg) of 3670 ng·h/mL and a clearance ([2]; iv, 1 mg/kg) of 74.2 mL/min/kg. It also gave an AUC(0-inf) ([2]; po, 5 mg/kg) of 18000 ng·h/mL and an AUC(0-t) ([2]; po, 5 mg/kg) of 17700 ng·h/mL.

Work on `O=C(O)[C@H]1C2CCC(CC2)[C@@H]1Nc1cc(-n2cccc2)nc(-c2c[nH]c3ncc(Cl)nc23)n1` [Example 55, (2S,3S)-3-((2-(2-chloro-5H-pyrrolo[2,3-b]pyrazin-7-yl)-6-(1H-pyrrol-1-yl)pyrimidin-4-yl)amino)bicyclo[2.2.2]octane-2-carboxylic Acid] yielded an EC50 [1] of 0.68 nM.

In the case of `O=C(O)[C@H]1C2CCC(CC2)[C@@H]1Nc1nc(-c2c[nH]c3ncc(Cl)nc23)nc(-c2ccc(F)s2)c1F` [Example 62, (2S,3S)-3-((2-(2-chloro-5H-pyrrolo[2,3-b]pyrazin-7-yl)-5-fluoro-6-(5-fluorothiophen-2-yl)pyrimidin-4-yl)amino)bicyclo[2.2.2]octane-2-carboxylic Acid], the AUC(0-inf) ([2]; iv, 1 mg/kg) is reported as 5510 ng·h/mL, the AUC(0-t) ([2]; iv, 1 mg/kg) is reported as 5390 ng·h/mL and the clearance ([2]; iv, 1 mg/kg) is reported as 50.7 mL/min/kg. The AUC(0-inf) ([2]; po, 5 mg/kg) was 25000 ng·h/mL, the AUC(0-t) ([2]; po, 5 mg/kg) was 24400 ng·h/mL and the EC50 [1] was 0.011 nM.

Work on `N#Cc1ccc(-c2nc(-c3c[nH]c4ncc(Cl)nc34)nc(N[C@H]3C4CCC(CC4)[C@@H]3C(=O)O)c2F)s1` [Example 63, (2S,3S)-3-((2-(2-chloro-5H-pyrrolo[2,3-b]pyrazin-7-yl)-6-(5-cyanothiophen-2-yl)-5-fluoropyrimidin-4-yl)amino)bicyclo[2.2.2]octane-2-carboxylic acid] yielded an EC50 [1] of 0.079 nM.

Work on `O=C(O)[C@H]1C2CCC(CC2)[C@@H]1Nc1nc(-c2c[nH]c3nccnc23)nc(-c2cccs2)c1F` [Example 64, (2S,3S)-3-((5-fluoro-2-(5H-pyrrolo[2,3-b]pyrazin-7-yl)-6-(thiophen-2-yl)pyrimidin-4-yl)amino)bicyclo[2.2.2]octane-2-carboxylic Acid] yielded an EC50 [1] of 0.887 nM.

Compound `O=C(O)[C@H]1C2CCC(CC2)[C@@H]1Nc1nc(-c2c[nH]c3ncc(Cl)nc23)nc2c1ccn2C(CF)CF` [Example 65, (2S,3S)-3-((2-(2-chloro-5H-pyrrolo[2,3-b]pyrazin-7-yl)-7-(1,3-difluoropropan-2-yl)-7H-pyrrolo[2,3-d]pyrimidin-4-yl)amino)bicyclo[2.2.2]octane-2-carboxylic Acid] has an AUC(0-inf) ([2]; iv, 1 mg/kg) of 2390 ng·h/mL, an AUC(0-t) ([2]; iv, 1 mg/kg) of 2370 ng·h/mL and a clearance ([2]; iv, 1 mg/kg) of 121 mL/min/kg. It also gave an AUC(0-inf) ([2]; po, 5 mg/kg) of 6170 ng·h/mL and an AUC(0-t) ([2]; po, 5 mg/kg) of 6150 ng·h/mL.

For `CC(C)Cn1ccc2c(N[C@H]3C4CCC(CC4)[C@@H]3C(=O)O)nc(-c3c[nH]c4ncc(Cl)nc34)nc21` [Example 66, (2S,3S)-3-((2-(2-chloro-5H-pyrrolo[2,3-b]pyrazin-7-yl)-7-isobutyl-7H-pyrrolo[2,3-d]pyrimidin-4-yl)amino)bicyclo[2.2.2]octane-2-carboxylic Acid], the AUC(0-inf) ([2]; iv, 1 mg/kg) was 3480 ng·h/mL, the AUC(0-t) ([2]; iv, 1 mg/kg) was 3470 ng·h/mL and the clearance ([2]; iv, 1 mg/kg) was 82.5 mL/min/kg. It also gave an AUC(0-inf) ([2]; po, 5 mg/kg) of 12600 ng·h/mL, an AUC(0-t) ([2]; po, 5 mg/kg) of 12500 ng·h/mL and an EC50 [1] of 0.274 nM.
